Structures can show the parent of a compound that is named as a salt.
Experiments:
[1] = molecular target: Gastrin/cholecystokinin type B receptor (Oryctolagus cuniculus); assay: In vitro inhibition of gastrin-induced [Ca2+] cytosolic elevation in isolated rabbit parietal cells
[2] = molecular target: Gastrin/cholecystokinin type B receptor (Cavia porcellus); assay: Inhibition of binding of [3H]N-Me-N-Leu-CCK-8 to cholecystokinin type B receptor in guinea pig brain cortex

Compound	IC50 [1] [nM]	IC50 [2] [nM]
O=C(CCC(NC(=O)c1cc(Cl)cc(Cl)c1)C(=O)N1CCC2(CCCC2)CC1)Nc1ccccc1C(=O)O (centres undefined) [2-[5-(8-Aza-spiro[4.5]dec-8-yl)-4-(3,5-dichloro-benzoylamino)-5-oxo-pentanoylamino]-benzoic acid]	55	443
CN(C(=O)CCC(NC(=O)c1cc(Cl)cc(Cl)c1)C(=O)N1CCC2(CCCC2)CC1)c1ccc(C(=O)O)cc1 (centres undefined) [4-{[5-(8-Aza-spiro[4.5]dec-8-yl)-4-(3,5-dichloro-benzoylamino)-5-oxo-pentanoyl]-methyl-amino}-benzoic acid]	1080	1420
O=C(CC(NC(=O)CCC(NC(=O)c1cc(Cl)cc(Cl)c1)C(=O)N1CCC2(CCCC2)CC1)C(=O)O)NCc1ccccc1 (centres undefined) [2-[5-(8-Aza-spiro[4.5]dec-8-yl)-4-(3,5-dichloro-benzoylamino)-5-oxo-pentanoylamino]-N-benzyl-succinamic acid]	76	385
CC(NC(=O)CCC(NC(=O)c1cc(Cl)cc(Cl)c1)C(=O)N1CCC2(CCCC2)CC1)C(=O)O (centres undefined) [2-[5-(8-Aza-spiro[4.5]dec-8-yl)-4-(3,5-dichloro-benzoylamino)-5-oxo-pentanoylamino]-propionic acid]	994	1250
O=C(CCC(NC(=O)c1cc(Cl)cc(Cl)c1)C(=O)N1CCC2(CCCC2)CC1)N[C@H](Cc1ccc2ccccc2c1)C(=O)O (stereo partly drawn) [(R)-2-[5-(8-Aza-spiro[4.5]dec-8-yl)-4-(3,5-dichloro-benzoylamino)-5-oxo-pentanoylamino]-3-naphthalen-2-yl-propionic acid]	24	129
O=C(CCC(NC(=O)c1cc(Cl)cc(Cl)c1)C(=O)N1CCC2(CCCC2)CC1)N[C@H](Cc1cccc2ccccc12)C(=O)O (stereo partly drawn) [(R)-2-[5-(8-Aza-spiro[4.5]dec-8-yl)-4-(3,5-dichloro-benzoylamino)-5-oxo-pentanoylamino]-3-naphthalen-1-yl-propionic acid]	9	67
O=C(O)CC[C@@H](NC(=O)CCC(NC(=O)c1cc(Cl)cc(Cl)c1)C(=O)N1CCC2(CCCC2)CC1)C(=O)NCCc1ccccc1 (stereo partly drawn) [(R)-4-[5-(8-Aza-spiro[4.5]dec-8-yl)-4-(3,5-dichloro-benzoylamino)-5-oxo-pentanoylamino]-4-phenethylcarbamoyl-butyric acid]	398	1110
CN(Cc1ccccc1)C(=O)CC[C@H](NC(=O)CCC(NC(=O)c1cc(Cl)cc(Cl)c1)C(=O)N1CCC2(CCCC2)CC1)C(=O)O (stereo partly drawn) [(S)-2-[5-(8-Aza-spiro[4.5]dec-8-yl)-4-(3,5-dichloro-benzoylamino)-5-oxo-pentanoylamino]-4-(benzyl-methyl-carbamoyl)-butyric acid]	55	78

More lines, now with the values ahead:

IC50 [1] [nM]	IC50 [2] [nM]	Compound
2810	1570	CN(CC(=O)O)C(=O)CCC(NC(=O)c1cc(Cl)cc(Cl)c1)C(=O)N1CCC2(CCCC2)CC1 (centres undefined) [{[5-(8-Aza-spiro[4.5]dec-8-yl)-4-(3,5-dichloro-benzoylamino)-5-oxo-pentanoyl]-methyl-amino}-acetic acid]
16	57	O=C(O)CC[C@H](NC(=O)CCC(NC(=O)c1cc(Cl)cc(Cl)c1)C(=O)N1CCC2(CCCC2)CC1)C(=O)Nc1cccc2c1CCCC2 (stereo partly drawn) [(S)-4-[5-(8-Aza-spiro[4.5]dec-8-yl)-4-(3,5-dichloro-benzoylamino)-5-oxo-pentanoylamino]-4-(5,6,7,8-tetrahydro-naphthalen-1-ylcarbamoyl)-butyric acid]
9	46	O=C(O)CC[C@H](NC(=O)CCC(NC(=O)c1cc(Cl)cc(Cl)c1)C(=O)N1CCC2(CCCC2)CC1)C(=O)NC1CCCc2ccccc21 (stereo partly drawn) [(S)-4-[5-(8-Aza-spiro[4.5]dec-8-yl)-4-(3,5-dichloro-benzoylamino)-5-oxo-pentanoylamino]-4-(1,2,3,4-tetrahydro-naphthalen-1-ylcarbamoyl)-butyric acid]
76	136	O=C(O)CC[C@H](NC(=O)CCC(NC(=O)c1cc(Cl)cc(Cl)c1)C(=O)N1CCC2(CCCC2)CC1)C(=O)Nc1cccc2ncccc12 (stereo partly drawn) [(S)-4-[5-(8-Aza-spiro[4.5]dec-8-yl)-4-(3,5-dichloro-benzoylamino)-5-oxo-pentanoylamino]-4-(quinolin-5-ylcarbamoyl)-butyric acid; hydrochloride]

Reference: BindingDB's records for doi:10.1021/jm950372w (Rotta Research Laboratorium, 1996)
